What was measured:
D(2) dopamine receptor = D(2) dopamine receptor (Rattus norvegicus, UniProt P61169); assay: Compound was tested for binding affinity against Dopamine receptor D2 using 10 nM [3H]N-methyl-spiperone as the radioligand.
D(1A) dopamine receptor = D(1A) dopamine receptor (Rattus norvegicus, UniProt P18901); assay: Compound was tested for binding affinity against Dopamine receptor D1 using 1 nM [3H]SCH-23390 as the radioligand.
Mus musculus = assay: Compound was tested for its activity using mouse writhing assay after icv administration.; type: functional
Mu-type opioid receptor = Mu-type opioid receptor (Bos taurus, UniProt P79350); assay: Compound was tested for binding activity against mu opioid receptor in bovine striatal membranes using 0.25 nM [3H]DAMGO as the radioligand.; type: cell membranes, Striatum, Membrane
Sequence of Mu-type opioid receptor (P79350 whole entry): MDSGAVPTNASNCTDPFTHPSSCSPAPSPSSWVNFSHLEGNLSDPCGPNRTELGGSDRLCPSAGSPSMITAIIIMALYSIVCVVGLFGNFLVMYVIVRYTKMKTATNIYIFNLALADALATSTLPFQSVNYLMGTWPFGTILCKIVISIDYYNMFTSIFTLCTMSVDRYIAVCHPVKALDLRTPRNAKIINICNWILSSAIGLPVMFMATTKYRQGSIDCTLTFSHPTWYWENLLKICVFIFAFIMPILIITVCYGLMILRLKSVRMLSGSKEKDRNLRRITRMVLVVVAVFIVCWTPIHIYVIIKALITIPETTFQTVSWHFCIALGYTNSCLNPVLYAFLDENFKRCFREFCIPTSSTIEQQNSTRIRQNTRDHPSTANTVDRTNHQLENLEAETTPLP

Sequence of D(2) dopamine receptor (P61169 whole entry): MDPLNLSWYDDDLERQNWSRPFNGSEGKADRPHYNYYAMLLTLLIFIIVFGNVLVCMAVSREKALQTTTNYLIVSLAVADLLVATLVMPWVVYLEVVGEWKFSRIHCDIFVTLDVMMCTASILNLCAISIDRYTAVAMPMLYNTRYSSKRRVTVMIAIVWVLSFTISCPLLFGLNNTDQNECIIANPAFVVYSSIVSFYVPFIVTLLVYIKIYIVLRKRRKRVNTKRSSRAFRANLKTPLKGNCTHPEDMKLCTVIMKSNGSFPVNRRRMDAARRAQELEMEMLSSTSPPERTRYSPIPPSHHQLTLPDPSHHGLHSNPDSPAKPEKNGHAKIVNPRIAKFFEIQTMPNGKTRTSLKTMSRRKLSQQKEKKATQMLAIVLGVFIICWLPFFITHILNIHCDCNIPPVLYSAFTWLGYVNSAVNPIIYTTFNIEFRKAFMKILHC
Sequence of D(1A) dopamine receptor (P18901 whole entry): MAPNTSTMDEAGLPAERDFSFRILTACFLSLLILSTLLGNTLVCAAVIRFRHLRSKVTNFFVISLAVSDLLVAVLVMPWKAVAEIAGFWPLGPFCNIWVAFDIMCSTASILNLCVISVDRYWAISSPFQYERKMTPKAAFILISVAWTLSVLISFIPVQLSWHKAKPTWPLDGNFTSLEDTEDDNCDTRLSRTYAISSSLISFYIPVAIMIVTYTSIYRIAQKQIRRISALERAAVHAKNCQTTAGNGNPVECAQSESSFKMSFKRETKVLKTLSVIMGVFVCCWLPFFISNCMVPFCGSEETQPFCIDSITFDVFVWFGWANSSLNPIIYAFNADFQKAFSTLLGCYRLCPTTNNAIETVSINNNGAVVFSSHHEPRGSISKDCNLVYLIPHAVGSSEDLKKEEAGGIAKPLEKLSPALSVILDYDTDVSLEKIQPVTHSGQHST

| Compound | IC50 (D(2) dopamine receptor) [nM] | IC50 (D(1A) dopamine receptor) [nM] | D50 (Mus musculus) [nM] | IC50 (Mu-type opioid receptor) [nM] |
| --- | --- | --- | --- | --- |
| CN1CCc2cc(Cl)c(O)cc2C(c2cccc(N=C=S)c2)C1 (centres undefined) | 978 | 2.13 | – | – |
| O=C(CSSCC(=O)N[C@@]12CCC(=O)[C@@H]3Oc4c(O)ccc5c4[C@@]31CCN(CC1CCC1)[C@@H]2C5)N[C@@]12CCC(=O)[C@@H]3Oc4c(O)ccc5c4[C@@]31CCN(CC1CCC1)[C@@H]2C5 | – | – | 0.08 | 1.95 |
